We go through 26 molecules from patent US7888386B2, “3-(phenoxyphenylmethyl)pyrrolidine compounds” (Theravance, Inc., priority 2008, dated 2011).

Read-outs that look alike come from different tables or passages of the source.

For one assay, the target named is T1, hNET (Homo sapiens, UniProt P23975).
T1 construct: expressed in transfected cells; host or cells: HEK-293 derived cell line, stably transfected; membrane preparation
In words: hNET binding assay (Assay 1). Conditions: read-out: NET pKi (converted). The method, then: (§1) Membrane radioligand binding assays were used to measure competitive inhibition of labeled ligand (^3H-citalopram or ^3H-nisoxetine or ^3H-WIN35428) binding to membranes prepared from cells expressing the respective human recombinant transporter (hSERT or hNET or hDAT) in order to determine the pKi values of test compounds at the transporters.
(§2) Recombinant human embryonic kidney (HEK-293) derived cell lines stably transfected with hSERT or hNET, respectively, were grown in DMEM medium supplemented with 10% dialyzed FBS (for hSERT) or FBS (for hNET), 100 μg/ml penicillin, 100 μg/ml streptomycin, 2 mM L-glutamine and 250 μg/ml of the aminoglycoside antibiotic G418, in a 5% CO2 humidified incubator at 37° C. When cultures reached 80% confluence, the cells were washed thoroughly in PBS (without Ca^2+ and Mg^2+) and lifted with 5 mM EDTA in PBS. Cells were pelleted by centrifugation, resuspended in lysis buffer (10 mM Tris-HCl, pH 7.5 containing 1 mM EDTA), homogenized, pelleted by centrifugation, then resuspended in 50 mM Tris-HCl, pH 7.5 and 10% sucrose at 4° C. Protein concentration of the membrane suspension was determined using a Bio-Rad Bradford Protein Assay kit. Membranes were snap frozen and stored at −80° C. Chinese hamster ovary membranes expressing hDAT (CHO-DAT) were purchased from PerkinElmer and stored at −80° C.
(§3) Stock solutions (10 mM in DMSO) of test compound were prepared and serial dilutions made using Dilution Buffer (50 mM Tris-HCl, 120 mM NaCl, 5 mM KCl, pH 7.4, 0.1% BSA, 400 μM ascorbic acid).
(§4) Following a 60 minute incubation at 22° C. (or a period sufficient to reach equilibrium), the membranes were harvested by rapid filtration over a 96-well UniFilter GF/B plate, pretreated with 0.3% polyethyleneimine, and washed 6 times with 300 μl wash buffer (50 mM Tris-HCl, 0.9% NaCl, pH 7.5 at 4° C.). Plates were dried overnight at room temperature, ˜45 μl of MicroScint™-20 (Perkin Elmer) added and bound radioactivity quantitated via liquid scintillation spectroscopy. Competitive inhibition curves and saturation isotherms were analyzed using GraphPad Prism Software package (GraphPad Software, Inc., San Diego, Calif.). IC50 values were generated from concentration response curves using the Sigmoidal Dose Response (variable slope) algorithm in Prism GraphPad.

The next assay has as its target T2, hSERT (Homo sapiens, UniProt P31645).
T2 construct: expressed in transfected cells; host or cells: HEK-293 derived cell line, stably transfected; membrane preparation
In words: hSERT binding assay (Assay 1). The method, then: as §1, §2, §3, §4

Setting [1] is: membranes of HEK-293 cells expressing hNET, 1.0 nM 3H-nisoxetine.
Where [2] appears, read: ratio of binding Ki at hSERT to Ki at hNET, rounded off to the nearest tenth.
Setting [3] is: ratio of SERT Ki to NET Ki (binding).
The mark [4] stands for this setting: ratio of SERT Ki to NET Ki from binding assays.

T2 sequence (P31645 whole entry): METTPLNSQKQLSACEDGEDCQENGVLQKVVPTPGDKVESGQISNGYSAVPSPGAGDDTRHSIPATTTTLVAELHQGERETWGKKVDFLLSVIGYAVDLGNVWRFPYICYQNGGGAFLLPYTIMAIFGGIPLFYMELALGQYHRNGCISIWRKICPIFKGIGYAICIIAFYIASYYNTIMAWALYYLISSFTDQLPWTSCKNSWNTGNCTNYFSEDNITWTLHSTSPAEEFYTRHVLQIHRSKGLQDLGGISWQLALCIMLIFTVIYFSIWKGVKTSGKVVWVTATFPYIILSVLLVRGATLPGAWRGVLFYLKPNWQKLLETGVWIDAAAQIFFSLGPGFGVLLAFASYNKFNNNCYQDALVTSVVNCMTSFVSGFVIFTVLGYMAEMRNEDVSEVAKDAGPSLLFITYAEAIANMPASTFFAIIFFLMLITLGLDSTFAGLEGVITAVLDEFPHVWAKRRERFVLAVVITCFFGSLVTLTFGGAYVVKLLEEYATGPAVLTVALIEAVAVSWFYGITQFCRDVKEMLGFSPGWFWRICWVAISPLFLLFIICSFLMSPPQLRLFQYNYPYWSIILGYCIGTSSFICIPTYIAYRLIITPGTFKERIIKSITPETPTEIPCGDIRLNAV
T1 sequence (P23975 whole entry): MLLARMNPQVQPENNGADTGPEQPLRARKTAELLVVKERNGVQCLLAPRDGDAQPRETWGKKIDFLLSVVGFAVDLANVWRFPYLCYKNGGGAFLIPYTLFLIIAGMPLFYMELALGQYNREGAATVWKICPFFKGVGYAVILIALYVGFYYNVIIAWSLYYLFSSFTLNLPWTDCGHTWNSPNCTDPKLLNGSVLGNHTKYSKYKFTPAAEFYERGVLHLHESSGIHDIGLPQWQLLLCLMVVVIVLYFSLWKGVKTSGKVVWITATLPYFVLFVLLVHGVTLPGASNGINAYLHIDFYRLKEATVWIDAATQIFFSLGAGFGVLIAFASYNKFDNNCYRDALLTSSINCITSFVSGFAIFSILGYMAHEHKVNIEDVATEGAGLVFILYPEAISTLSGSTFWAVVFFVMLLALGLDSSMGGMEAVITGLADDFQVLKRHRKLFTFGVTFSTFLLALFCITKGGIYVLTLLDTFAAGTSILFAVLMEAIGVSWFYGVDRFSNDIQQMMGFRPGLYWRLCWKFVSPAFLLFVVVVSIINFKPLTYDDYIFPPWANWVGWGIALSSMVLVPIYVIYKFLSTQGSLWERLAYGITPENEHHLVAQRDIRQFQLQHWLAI

With `c1ccc(Cc2ccccc2OC(c2ccccc2)C2CCNC2)cc1` (stereo not shown) [Compound 19-20], the Ki at hNET (setting [1]) was 7.94 nM. Besides, at hSERT (setting [2]), the “SERT Ki/NET Ki” value is given as 1.6.
For the molecule `Fc1cc(F)cc(C(Oc2cc(Cl)cc(Cl)c2)C2CCNC2)c1` (stereo not shown) [35-14], on hNET (hNET binding), the Ki was 2 nM. The “SERT Ki/NET Ki” value at hSERT (setting [3]) amounted to 0.3.
For `Cc1ccc(F)c(OC(c2cc(F)cc(F)c2)C2CCNC2)c1Cl` (stereo not shown) [41-29], the Ki at hNET (hNET binding) was 0.251 nM. In addition, the “SERT Ki/NET Ki” value on hSERT (setting [3]) worked out at 0.5.
Turning to `CSc1ccccc1OC(c1ccccc1)C1CCNC1` (stereo not shown) [Compound 19-29], the Ki on hNET (setting [1]) is 0.631 nM. Moreover, at hSERT (setting [2]), the “SERT Ki/NET Ki” value is given as 25.
`Fc1cccc(OC(c2ccccc2)C2CCNC2)c1F` (stereo not shown) [Compound 25-1]: the Ki at hNET (setting [1]) was 0.794 nM. Further, the “SERT Ki/NET Ki” value on hSERT (setting [2]) was determined as 32.
In the case of `Cc1ccc(Cl)c(OC(c2ccccc2)C2CCNC2)c1F` (stereo not shown) [40-27], the Ki at hNET (hNET binding) was 0.251 nM. Further, on hSERT (setting [3]), the “SERT Ki/NET Ki” value turned out to be 5.
In the case of `Cc1c(Cl)cccc1OC(c1ccccc1)C1CCNC1` (stereo not shown) [Compound 25-20], the Ki at hNET (setting [1]) is 0.631 nM. Also, on hSERT (setting [2]), the “SERT Ki/NET Ki” value turned out to be 0.2.
As for `COc1ccc(F)cc1O[C@@H](c1ccccc1)[C@H]1CCNC1` [29-24], the Ki at hNET (hNET binding assay) was 1 nM. The “SERT Ki/NET Ki” value at hSERT (setting [4]) is 34.
As to `CCc1cc(F)cc(F)c1O[C@@H](c1ccccc1)[C@H]1CCNC1` [44-4], the Ki on hNET (hNET binding, the tables list only compounds with NET pKi≧8) is 0.631 nM. In addition, the “SERT Ki/NET Ki” value at hSERT (ratio of binding Ki at SERT to Ki at NET, the tables list only compounds with a ratio in the range 0.1-100) worked out at 0.3.
For `Ic1cccc(OC(c2ccccc2)C2CCNC2)c1` (stereo not shown) [Compound 21-6], at hNET (setting [1]), the Ki is 3.98 nM. The “SERT Ki/NET Ki” value at hSERT (setting [2]) was 0.2.
As to `COc1cccc(C(Oc2ccccc2C(C)C)C2CCNC2)c1` (stereo not shown) [Compound 20-10], on hNET (setting [1]), the Ki was 5.01 nM. At hSERT (setting [2]), the “SERT Ki/NET Ki” value was found to be 2.5.
Take `Fc1cc(Cl)cc(OC(c2ccccc2)C2CCNC2)c1` (stereo not shown) [34-5]: the Ki at hNET (hNET binding assay) was 3.16 nM. At hSERT (setting [4]), the “SERT Ki/NET Ki” value was determined as 0.1.
`Fc1ccc(O[C@@H](c2ccccc2)[C@H]2CCNC2)c(F)c1F` [36-1]: the Ki at hNET (hNET binding) is 6.31 nM. The “SERT Ki/NET Ki” value on hSERT (setting [3]) amounted to 0.8.
For the molecule `Cc1ccc(F)c(O[C@@H](c2ccccc2)[C@H]2CCNC2)c1F` [40-26], on hNET (hNET binding), the Ki was 0.251 nM. On hSERT (setting [3]), the “SERT Ki/NET Ki” value stood at 20.
The corresponding values for `Cc1ccc(Cl)c(OC(c2cc(F)cc(Cl)c2)C2CCNC2)c1Cl` (stereo not shown) [41-24] are 1 nM and 1.
For `Cc1ccc(F)c(OC(c2ccccc2)C2CCNC2)c1` (stereo not shown) [29-8], at hNET (hNET binding assay), the Ki was 1.58 nM. Further, the “SERT Ki/NET Ki” value at hSERT (setting [4]) is 3.2.
Take `Fc1cc(F)cc([C@H](Oc2cc(Cl)ccc2Cl)[C@H]2CCNC2)c1` [30-4]: on hNET (hNET binding assay), the Ki is 3.16 nM. Besides, the “SERT Ki/NET Ki” value on hSERT (setting [4]) is reported as 2.5.
For the molecule `Cc1ccc(F)c(O[C@@H](c2ccccc2)[C@@H]2CCNC2)c1Cl` [40-30], the Ki on hNET (hNET binding) is 5.01 nM. The “SERT Ki/NET Ki” value at hSERT (setting [3]) came to 0.1.
Take `Clc1cccc(C(Oc2cccc(Cl)c2Cl)C2CCNC2)c1` (stereo not shown) [Compound 26-3]: on hNET (hNET binding assay), the Ki was 5.01 nM. Moreover, at hSERT (setting [4]), the “SERT Ki/NET Ki” value was found to be 0.1.
In the case of `COc1ccccc1OC(c1cc(F)cc(Cl)c1)C1CCNC1` (stereo not shown) [Compound 20-35], the Ki at hNET (setting [1]) is 0.631 nM. For the same molecule, the “SERT Ki/NET Ki” value on hSERT (setting [2]) came to 16.
`Cc1cc(F)ccc1OC(c1ccccc1)C1CCNC1` (stereo not shown) [27-13]: at hNET (hNET binding assay), the Ki is 3.16 nM. Further, at hSERT (setting [4]), the “SERT Ki/NET Ki” value amounted to 0.3.
For the molecule `c1ccc(Cc2ccccc2OC(c2ccccc2)C2CCNC2)cc1` (stereo not shown) [Compound 19-21], the Ki at hNET (setting [1]) is 5.01 nM. Besides, on hSERT (setting [2]), the “SERT Ki/NET Ki” value came out at 5.
Regarding `Cc1cccc(OC(c2ccccc2)C2CCNC2)c1C` (stereo not shown) [Compound 25-23], the Ki on hNET (setting [1]) was 1.58 nM. Besides, at hSERT (setting [2]), the “SERT Ki/NET Ki” value was 0.1.
Consider `Cc1ccc(F)c(OC(c2cc(F)cc(F)c2)C2CCNC2)c1Cl` (stereo not shown) [41-28], for which, on hNET (hNET binding), the Ki is 0.316 nM. For the same molecule, the “SERT Ki/NET Ki” value at hSERT (setting [3]) is listed as 6.3.
As to `Fc1cc(F)cc(C(Oc2cc(F)c(F)cc2F)C2CCNC2)c1` (stereo not shown) [43-1], on hNET (hNET binding), the Ki was 2 nM. Also, the “SERT Ki/NET Ki” value at hSERT (setting [3]) is listed as 32.
Regarding `Fc1cc(F)cc(C(Oc2cc(Cl)cc(Cl)c2Cl)C2CCNC2)c1` (stereo not shown) [39-5], on hNET (hNET binding), the Ki is 3.16 nM. On hSERT (setting [3]), the “SERT Ki/NET Ki” value is 0.2.
